{"source": "paper PMC10778198", "about": "“First-in-Human Dose-Escalation Study of the Novel Oral Depsipeptide Class I-Targeting HDAC Inhibitor Bocodepsin (OKI-179) in Patients with Advanced Solid Tumors” (Cancers, 2023)", "test_system": "patients with advanced solid tumors", "test": "phase I dose escalation: safety, DLT, MTD, RP2D (CTCAE v. 5)", "type": "in vivo", "settings": "4:3", "description": "Subsequent dosing cohorts were enrolled using a standard 3 + 3 design.\nIf any patient in any cohort of three patients developed a DLT during cycle 1, an additional three patients were recruited to expand the cohort to up to six evaluable patients. If two or more patients in any expanded cohort developed a DLT, this dose was considered non-tolerated, and dose escalation was discontinued. The MTD was defined as the highest dose level for which no more than one of six patients experienced a DLT.\nPatients were continuously evaluated for adverse events throughout the study using the Common Terminology Criteria of Adverse Events (CTCAE v. 5). The patients underwent a clinical history and physical examination, an ECOG PS, a complete blood count (CBCs), chemistry, coagulation studies, urinalysis, a serum pregnancy test (as applicable), a triplicate ECG, an ophthalmology examination, and baseline tumor assessment at screening. During cycle 1, weekly history and physical examination, CBC, chemistry, coagulation parameters, urinalysis, and triplicate ECGs were performed; in subsequent cycles, weekly labs were limited to a CBC. Repeat ophthalmology examinations were performed at cycle 3, day 1, and at the end of treatment. Repeat tumor assessment was performed every 2 cycles (6 weeks) in accordance with RECIST 1.1."}
{"compound": "CC(C)[C@H](N)C(=O)SCC/C=C/[C@@H]1CC(=O)NCc2nc(cs2)C(=O)NC(C)(C)C(=O)N[C@@H](C(C)C)C(=O)O1", "note": "[OKI-179, Bocodepsin]", "values": [{"measurement": "TEAE: Dyspnea", "setting": "270 mg (n = 3), G2", "result": "0 n (%)"}, {"measurement": "TEAE: ECG QT prolonged", "setting": "270 mg (n = 3), G2", "result": "0 n (%)"}, {"measurement": "TEAE: Fatigue", "setting": "270 mg (n = 3), G2", "result": "1 (33) n (%)"}, {"measurement": "TEAE: Headache", "setting": "270 mg (n = 3), G2", "result": "0 n (%)"}, {"measurement": "TEAE: Hypokalaemia", "setting": "270 mg (n = 3), G2", "result": "0 n (%)"}, {"measurement": "TEAE: Muscular weakness", "setting": "270 mg (n = 3), G2", "result": "0 n (%)"}, {"measurement": "TEAE: Nasal congestion", "setting": "270 mg (n = 3), G2", "result": "0 n (%)"}, {"measurement": "TEAE: Nausea", "setting": "270 mg (n = 3), G2", "result": "0 n (%)"}, {"measurement": "TEAE: Platelet count decreased", "setting": "270 mg (n = 3), G2", "result": "0 n (%)"}, {"measurement": "TEAE: Proteinuria", "setting": "270 mg (n = 3), G2", "result": "0 n (%)"}, {"measurement": "TEAE: Pyrexia", "setting": "270 mg (n = 3), G2", "result": "0 n (%)"}, {"measurement": "TEAE: Vomiting", "setting": "270 mg (n = 3), G2", "result": "0 n (%)"}, {"measurement": "TEAE: Weight decreased", "setting": "270 mg (n = 3), G2", "result": "0 n (%)"}, {"measurement": "TEAE: Anemia", "setting": "270 mg (n = 3), G3", "result": "1 (33) n (%)"}, {"measurement": "TEAE: Back pain", "setting": "270 mg (n = 3), G3", "result": "0 n (%)"}, {"measurement": "TEAE: Cough", "setting": "270 mg (n = 3), G3", "result": "0 n (%)"}, {"measurement": "TEAE: Decreased appetite", "setting": "270 mg (n = 3), G3", "result": "0 n (%)"}, {"measurement": "TEAE: Diarrhea", "setting": "270 mg (n = 3), G3", "result": "0 n (%)"}, {"measurement": "TEAE: Dyspnea", "setting": "270 mg (n = 3), G3", "result": "0 n (%)"}, {"measurement": "TEAE: ECG QT prolonged", "setting": "270 mg (n = 3), G3", "result": "0 n (%)"}, {"measurement": "TEAE: Fatigue", "setting": "270 mg (n = 3), G3", "result": "0 n (%)"}, {"measurement": "TEAE: Headache", "setting": "270 mg (n = 3), G3", "result": "0 n (%)"}, {"measurement": "TEAE: Hypokalaemia", "setting": "270 mg (n = 3), G3", "result": "0 n (%)"}, {"measurement": "TEAE: Muscular weakness", "setting": "270 mg (n = 3), G3", "result": "0 n (%)"}, {"measurement": "TEAE: Nasal congestion", "setting": "270 mg (n = 3), G3", "result": "0 n (%)"}, {"measurement": "TEAE: Nausea", "setting": "270 mg (n = 3), G3", "result": "0 n (%)"}, {"measurement": "TEAE: Platelet count decreased", "setting": "270 mg (n = 3), G3", "result": "0 n (%)"}, {"measurement": "TEAE: Proteinuria", "setting": "270 mg (n = 3), G3", "result": "0 n (%)"}, {"measurement": "TEAE: Pyrexia", "setting": "270 mg (n = 3), G3", "result": "1 (33) n (%)"}, {"measurement": "TEAE: Vomiting", "setting": "270 mg (n = 3), G3", "result": "0 n (%)"}, {"measurement": "TEAE: Weight decreased", "setting": "270 mg (n = 3), G3", "result": "0 n (%)"}, {"measurement": "TEAE: Anemia", "setting": "350 mg (n = 3), G1", "result": "1 (33) n (%)"}, {"measurement": "TEAE: Back pain", "setting": "350 mg (n = 3), G1", "result": "0 n (%)"}, {"measurement": "TEAE: Cough", "setting": "350 mg (n = 3), G1", "result": "0 n (%)"}, {"measurement": "TEAE: Decreased appetite", "setting": "350 mg (n = 3), G1", "result": "0 n (%)"}, {"measurement": "TEAE: Diarrhea", "setting": "350 mg (n = 3), G1", "result": "0 n (%)"}, {"measurement": "TEAE: Dyspnea", "setting": "350 mg (n = 3), G1", "result": "1 (33) n (%)"}, {"measurement": "TEAE: ECG QT prolonged", "setting": "350 mg (n = 3), G1", "result": "0 n (%)"}, {"measurement": "TEAE: Fatigue", "setting": "350 mg (n = 3), G1", "result": "0 n (%)"}, {"measurement": "TEAE: Headache", "setting": "350 mg (n = 3), G1", "result": "0 n (%)"}, {"measurement": "TEAE: Hypokalaemia", "setting": "350 mg (n = 3), G1", "result": "0 n (%)"}, {"measurement": "TEAE: Muscular weakness", "setting": "350 mg (n = 3), G1", "result": "0 n (%)"}, {"measurement": "TEAE: Nausea", "setting": "350 mg (n = 3), G1", "result": "1 (33) n (%)"}, {"measurement": "TEAE: Platelet count decreased", "setting": "350 mg (n = 3), G1", "result": "2 (67) n (%)"}, {"measurement": "TEAE: Proteinuria", "setting": "350 mg (n = 3), G1", "result": "0 n (%)"}, {"measurement": "TEAE: Pyrexia", "setting": "350 mg (n = 3), G1", "result": "0 n (%)"}, {"measurement": "TEAE: Vomiting", "setting": "350 mg (n = 3), G1", "result": "0 n (%)"}, {"measurement": "TEAE: Weight decreased", "setting": "350 mg (n = 3), G1", "result": "0 n (%)"}, {"measurement": "TEAE: Anemia", "setting": "350 mg (n = 3), G2", "result": "0 n (%)"}, {"measurement": "TEAE: Back pain", "setting": "350 mg (n = 3), G2", "result": "0 n (%)"}, {"measurement": "TEAE: Cough", "setting": "350 mg (n = 3), G2", "result": "0 n (%)"}, {"measurement": "TEAE: Decreased appetite", "setting": "350 mg (n = 3), G2", "result": "1 (33) n (%)"}, {"measurement": "TEAE: Diarrhea", "setting": "350 mg (n = 3), G2", "result": "0 n (%)"}, {"measurement": "TEAE: Dyspnea", "setting": "350 mg (n = 3), G2", "result": "0 n (%)"}, {"measurement": "TEAE: ECG QT prolonged", "setting": "350 mg (n = 3), G2", "result": "0 n (%)"}, {"measurement": "TEAE: Fatigue", "setting": "350 mg (n = 3), G2", "result": "0 n (%)"}, {"measurement": "TEAE: Headache", "setting": "350 mg (n = 3), G2", "result": "0 n (%)"}, {"measurement": "TEAE: Hypokalaemia", "setting": "350 mg (n = 3), G2", "result": "1 (33) n (%)"}, {"measurement": "TEAE: Muscular weakness", "setting": "350 mg (n = 3), G2", "result": "1 (33) n (%)"}, {"measurement": "TEAE: Nasal congestion", "setting": "350 mg (n = 3), G2", "result": "0 n (%)"}, {"measurement": "TEAE: Nausea", "setting": "350 mg (n = 3), G2", "result": "1 (33) n (%)"}, {"measurement": "TEAE: Platelet count decreased", "setting": "350 mg (n = 3), G2", "result": "0 n (%)"}, {"measurement": "TEAE: Proteinuria", "setting": "350 mg (n = 3), G2", "result": "0 n (%)"}, {"measurement": "TEAE: Pyrexia", "setting": "350 mg (n = 3), G2", "result": "0 n (%)"}, {"measurement": "TEAE: Vomiting", "setting": "350 mg (n = 3), G2", "result": "1 (33) n (%)"}, {"measurement": "TEAE: Weight decreased", "setting": "350 mg (n = 3), G2", "result": "0 n (%)"}, {"measurement": "TEAE: Anemia", "setting": "350 mg (n = 3), G3", "result": "0 n (%)"}, {"measurement": "TEAE: Back pain", "setting": "350 mg (n = 3), G3", "result": "1 (33) n (%)"}, {"measurement": "TEAE: Cough", "setting": "350 mg (n = 3), G3", "result": "0 n (%)"}, {"measurement": "TEAE: Decreased appetite", "setting": "350 mg (n = 3), G3", "result": "0 n (%)"}, {"measurement": "TEAE: Diarrhea", "setting": "350 mg (n = 3), G3", "result": "0 n (%)"}, {"measurement": "TEAE: Dyspnea", "setting": "350 mg (n = 3), G3", "result": "0 n (%)"}, {"measurement": "TEAE: ECG QT prolonged", "setting": "350 mg (n = 3), G3", "result": "1 (33) n (%)"}, {"measurement": "TEAE: Fatigue", "setting": "350 mg (n = 3), G3", "result": "1 (33) n (%)"}, {"measurement": "TEAE: Headache", "setting": "350 mg (n = 3), G3", "result": "0 n (%)"}]}
